In ChEMBL document CHEMBL4477252, “Optimization of microtubule affinity regulating kinase (MARK) inhibitors with improved physical properties” (Bioorg Med Chem Lett, 2016):
Converted amounts (≈) assume the structure as drawn.

Key:
[1] = molecular target: MAP/microtubule affinity-regulating kinase 3 (Homo sapiens, UniProt P27448); assay: Inhibition of full-length recombinant human GST-tagged MARK3 expressed in baculovirus expression system using biotinylated-Cdc25C peptide substrate measured after 2 hrs by HTRF assay
MAP/microtubule affinity-regulating kinase 3, sequence (P27448 whole entry): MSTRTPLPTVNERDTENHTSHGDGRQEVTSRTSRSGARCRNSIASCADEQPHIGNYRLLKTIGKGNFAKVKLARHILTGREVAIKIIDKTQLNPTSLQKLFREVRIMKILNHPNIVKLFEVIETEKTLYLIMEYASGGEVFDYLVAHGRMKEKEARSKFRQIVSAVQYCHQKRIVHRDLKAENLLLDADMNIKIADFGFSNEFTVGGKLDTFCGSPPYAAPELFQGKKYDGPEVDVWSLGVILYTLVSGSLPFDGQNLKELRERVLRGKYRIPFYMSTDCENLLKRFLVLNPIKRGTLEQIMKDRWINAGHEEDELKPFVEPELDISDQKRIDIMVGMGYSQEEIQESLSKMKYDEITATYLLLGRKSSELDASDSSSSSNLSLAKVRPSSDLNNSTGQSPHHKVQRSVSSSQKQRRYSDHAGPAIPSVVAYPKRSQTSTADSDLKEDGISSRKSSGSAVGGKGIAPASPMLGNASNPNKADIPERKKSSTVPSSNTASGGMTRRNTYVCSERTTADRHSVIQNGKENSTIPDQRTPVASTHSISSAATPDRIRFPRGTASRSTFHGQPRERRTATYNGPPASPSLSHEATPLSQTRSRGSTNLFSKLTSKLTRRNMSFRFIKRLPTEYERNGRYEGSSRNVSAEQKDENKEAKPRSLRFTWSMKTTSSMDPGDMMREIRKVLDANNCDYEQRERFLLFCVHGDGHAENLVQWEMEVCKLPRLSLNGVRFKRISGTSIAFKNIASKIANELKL

[2] = Solubility of the compound at pH 7; type: physicochemical; conditions: buffer
[3] = molecular target: MDR1 (ABCB1, P-glycoprotein) (Homo sapiens, UniProt P08183); assay: Substrate activity at human MDR1 expressed in LLC-PK1 cells assessed as efflux ratio of permeability across basolateral to apical over apical to basolateral side at 5 uM; type: ADME, cell-based
MDR1 (ABCB1, P-glycoprotein), sequence (P08183 whole entry): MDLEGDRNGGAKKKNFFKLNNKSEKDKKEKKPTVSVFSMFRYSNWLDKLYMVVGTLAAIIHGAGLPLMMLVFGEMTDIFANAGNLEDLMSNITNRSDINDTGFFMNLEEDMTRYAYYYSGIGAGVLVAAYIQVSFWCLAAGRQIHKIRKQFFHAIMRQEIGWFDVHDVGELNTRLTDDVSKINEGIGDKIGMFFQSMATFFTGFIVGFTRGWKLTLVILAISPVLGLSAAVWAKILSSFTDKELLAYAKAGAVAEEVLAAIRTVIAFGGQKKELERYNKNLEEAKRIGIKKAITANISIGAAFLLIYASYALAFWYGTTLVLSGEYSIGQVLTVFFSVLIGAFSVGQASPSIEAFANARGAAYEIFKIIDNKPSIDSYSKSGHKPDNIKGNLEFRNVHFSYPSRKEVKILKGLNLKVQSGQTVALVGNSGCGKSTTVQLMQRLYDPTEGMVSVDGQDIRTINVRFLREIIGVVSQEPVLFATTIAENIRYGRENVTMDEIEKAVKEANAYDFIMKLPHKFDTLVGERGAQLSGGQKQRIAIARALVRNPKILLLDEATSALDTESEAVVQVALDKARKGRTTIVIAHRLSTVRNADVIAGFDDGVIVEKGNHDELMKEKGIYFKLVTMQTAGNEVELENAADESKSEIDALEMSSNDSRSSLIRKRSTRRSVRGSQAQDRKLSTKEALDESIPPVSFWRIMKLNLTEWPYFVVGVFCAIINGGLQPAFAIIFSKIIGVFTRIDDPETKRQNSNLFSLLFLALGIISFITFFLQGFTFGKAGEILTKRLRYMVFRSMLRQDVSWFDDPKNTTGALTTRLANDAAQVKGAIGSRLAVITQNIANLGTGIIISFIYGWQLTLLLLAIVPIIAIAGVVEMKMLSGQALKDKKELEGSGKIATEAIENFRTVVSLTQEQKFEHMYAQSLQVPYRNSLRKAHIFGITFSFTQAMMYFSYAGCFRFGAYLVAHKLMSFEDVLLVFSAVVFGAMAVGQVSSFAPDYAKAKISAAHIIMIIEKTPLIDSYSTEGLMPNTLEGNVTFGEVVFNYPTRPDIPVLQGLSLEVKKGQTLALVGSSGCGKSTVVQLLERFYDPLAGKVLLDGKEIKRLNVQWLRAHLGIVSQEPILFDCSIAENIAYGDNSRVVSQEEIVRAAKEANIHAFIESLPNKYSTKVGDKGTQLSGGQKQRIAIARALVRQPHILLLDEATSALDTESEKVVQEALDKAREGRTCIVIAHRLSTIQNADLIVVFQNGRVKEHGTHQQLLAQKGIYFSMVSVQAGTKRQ

[4] = Clearance in Sprague-Dawley rat at 1 mL/kg, iv administered through catheter measured after 24 hrs by LC-MS/MS analysis; type: ADME, organism-based; conditions: in vivo

Compound | IC50 [1] | solubility [2] | efflux ratio at 5 µM [3] | clearance [4]
CCNC(=O)c1cc(-c2cnn3cc(-c4cnn(C)c4)cnc23)cs1 | 0.129 µM | – | – | –
O=C(NCC(F)(F)F)c1cc(-c2cnn3cc(-c4cccnc4)cnc23)cs1 | 0.07 µM | – | – | –
Cc1sc(C(=O)N[C@@H]2[C@H](N)CCCC2(F)F)cc1-c1cnn2cc(-c3cnn(C)c3)cnc12 | < 0.00025 µM | 31 µM (≈ 14.6 µg/mL) | – | –
Cn1cc(-c2cnc3c(-c4csc(C(=O)NCCC(N)C(F)F)c4)cnn3c2)cn1 (stereo not drawn) | 0.015 µM | – | 11.5 | 16.7 mL/min/kg
Cn1cc(-c2cnc3c(-c4csc(C(=O)N[C@@H]5CCC[C@@H]5N)c4)cnn3c2)cn1 (racemic) | 0.002 µM | 69 µM (≈ 28.1 µg/mL) | – | –
Cn1cc(-c2cnc3c(-c4csc(C(=O)NCCC(N)CF)c4)cnn3c2)cn1 (stereo not drawn) | 0.022 µM | – | 16.7 | –
Cn1cc(-c2cnc3c(-c4csc(C(=O)N[C@@H]5CCC[C@H]5O)c4)cnn3c2)cn1 (racemic) | 0.01 µM | – | – | –
Cn1cnc(-c2cnc3c(-c4csc(C(=O)NCC(F)(F)F)c4)cnn3c2)c1 | 0.013 µM | – | – | –
Cn1cc(-c2cnc3c(-c4csc(C(=O)N[C@@H]5CCC[C@H]5N)c4)cnn3c2)cn1 (racemic) | 0.003 µM | 203 µM (≈ 82.7 µg/mL) | – | –
Cn1cc(-c2cnc3c(-c4csc(C(=O)N[C@@H]5CCCC[C@H]5O)c4)cnn3c2)cn1 (mixture of isomers) | 0.024 µM | 6 µM | – | –
Cn1cc(-c2cnc3c(-c4csc(C(=O)N[C@@H]5CCCC[C@H]5N)c4)cnn3c2)cn1 (racemic) | 0.001 µM | 193 µM (≈ 81.4 µg/mL) | – | –
Cn1cc(-c2cnc3c(-c4csc(C(=O)N[C@@H]5CCC[C@@H]5O)c4)cnn3c2)cn1 (racemic) | 0.043 µM | – | – | –
Cc1sc(C(=O)N[C@H]2CCCC(F)(F)[C@H]2N)cc1-c1cnn2cc(-c3cnn(C)c3)cnc12 | 0.13 µM | – | – | –
Cc1sc(C(=O)N[C@@H]2CCCC[C@@H]2N)cc1-c1cnn2cc(-c3cnn(C)c3)cnc12 (racemic) | 0.0013 µM | 192 µM (≈ 83.6 µg/mL) | – | –
O=C(NCC(F)(F)F)c1cc(-c2cnn3cc(-c4cn[nH]c4)cnc23)cs1 | 0.099 µM | – | – | –
Cc1sc(C(=O)N[C@@H]2[C@H](N)CCCC2(F)F)cc1-c1cnn2cccnc12 | 0.0024 µM | 200 µM (≈ 78.3 µg/mL) | 10 | –
Cn1cc(-c2cnc3c(-c4csc(C(=O)NC(CO)C5CC5)c4)cnn3c2)cn1 (stereo not drawn) | 0.009 µM | – | – | –
Cn1cc(-c2cnc3c(-c4csc(C(=O)NCCC(N)C(F)(F)F)c4)cnn3c2)cn1 (stereo not drawn) | 0.01 µM | – | 4.8 | 14 mL/min/kg
COCCOc1ccc(-c2cnc3c(-c4csc(C(=O)NCC(F)(F)F)c4)cnn3c2)cc1 | 0.005 µM | – | – | –
Cn1cc(-c2cnc3c(-c4csc(C(=O)N[C@@H]5CCCC[C@@H]5O)c4)cnn3c2)cn1 (racemic) | 0.009 µM | – | – | –
